As usually defined, the Kd is the concentration at which binding is half-saturated.

Assay [1] deals with GII.3 VLP. The experiment in a line: KD value by bio-layer interferometry (BLI, BLItz), peptide on SA chip, GII.3 VLP. The assay is classed as binding, norovirus GII.3 TCH strain. The note with it: for Kd: GII.3 VLP 1 and 0.1 mg/mL, 100 μM peptide bound to SA chip, KD calculated from Ka and Kd values; for ka / kd: GII.3 VLP; for ka: association 90 sec; for kd: dissociation in PBS 60 sec. As for the experimental part:
(§1) <Calculation of KD Value by Bio-Layer Interferometry: BLI Method>
(§2) The apparatus used was BLItz™ (manufactured by ForteBio). The tip of SA chip (manufactured by ForteBio) was kept in contact with purified water for 1 minute for hydration and was then kept in contact with a 1% BSA aqueous solution for 1 hour for blocking. The SA chip subjected to blocking treatment was set to the measuring unit of the BLItz™ main body, and measurement was performed according to the program shown in Table 14. The peptides of SEQ ID NOs: 43, 48, 52, 59, 131, 143, 150, 154, 155, 156, 163, and 172 were used, and the concentration was adjusted to 100 µM. The concentrations of each of the GII.3 and GII.17 VLPs were adjusted to 1 and 0.1 mg/mL. The measurement data were analyzed using the attached software, and the KD value was calculated based on the Ka and Kd values.

For assay [2], the target named is GII.17 VLP. Nature of the assay: KD value by bio-layer interferometry (BLI, BLItz), peptide on SA chip, GII.17 VLP. The assay is classed as binding, norovirus GII.17 Saitama strain. The note with it: for Kd: GII.17 VLP 1 and 0.1 mg/mL, 100 μM peptide bound to SA chip, KD calculated from Ka and Kd values; for ka / kd: GII.17 VLP; for ka: association 90 sec; for kd: dissociation in PBS 60 sec. The procedure: as §1, §2

Turning to ECMGRRWMSS [No. 154], in assay [1], the Kd is 123 nM, the “ka” value amounted to 141000 M⁻¹ s⁻¹ and the “kd” value was 0.0173 s⁻¹. In assay [2], the dissociation constant (Kd) is 0.628 µM, the “ka” value came out at 49500 M⁻¹ s⁻¹ and the “kd” value amounted to 0.00205 s⁻¹.

In the case of GCVGDLYCSA [No. 172], in assay [1], the dissociation constant (Kd) was 69300 nM, the “ka” value was found to be 189 M⁻¹ s⁻¹ and the “kd” value was 0.0131 s⁻¹.

Consider ICSSWFPSVH [No. 48], for which, in assay [1], the Kd is 30.3 nM, the “ka” value turned out to be 810000 M⁻¹ s⁻¹ and the “kd” value is 0.0246 s⁻¹. For the same sequence, in assay [2], the Kd is 0.0766 µM, the “ka” value was determined as 1.28e+06 M⁻¹ s⁻¹ and the “kd” value is 0.0978 s⁻¹.

KYRATICHTV [No. 52]: in assay [1], the Kd is 13.8 nM, the “ka” value worked out at 747000 M⁻¹ s⁻¹ and the “kd” value was 0.0103 s⁻¹. In assay [2], the Kd was 0.0179 µM, the “ka” value amounted to 1.29e+06 M⁻¹ s⁻¹ and the “kd” value stood at 0.0232 s⁻¹.

Regarding NFRVPIRFTH [No. 131], in assay [1], the Kd was 157000 nM, the “ka” value was determined as 1660 M⁻¹ s⁻¹ and the “kd” value was found to be 0.262 s⁻¹.

With SVMVTRSLFG [No. 163], in assay [1], the equilibrium dissociation constant (Kd) is 7.66 nM, the “ka” value came to 1.03e+06 M⁻¹ s⁻¹ and the “kd” value came out at 0.00786 s⁻¹. In addition, in assay [2], the “ka” value is 110000 M⁻¹ s⁻¹ and the “kd” value stood at 0.0185 s⁻¹.

For VCVDNDISMS [No. 150], in assay [1], the Kd was 437 nM, the “ka” value came to 27000 M⁻¹ s⁻¹ and the “kd” value stood at 0.0118 s⁻¹. For the same sequence, in assay [2], the Kd is 2510 µM, the “ka” value was determined as 102 M⁻¹ s⁻¹ and the “kd” value was determined as 0.255 s⁻¹.

On to VELFLLTSSC [No. 155], for which, in assay [1], the Kd is 803000 nM, the “ka” value was determined as 115 M⁻¹ s⁻¹ and the “kd” value came to 0.0926 s⁻¹.

As for VVGFGRRSLF [No. 156], in assay [1], the Kd was 1060 nM, the “ka” value was determined as 67300 M⁻¹ s⁻¹ and the “kd” value worked out at 0.0713 s⁻¹. In addition, in assay [2], the Kd was 234 µM, the “ka” value was found to be 398 M⁻¹ s⁻¹ and the “kd” value stood at 0.0931 s⁻¹.

As for YRRSKSEIFV [No. 59], in assay [1], the Kd was 8.87 nM, the “ka” value was determined as 805000 M⁻¹ s⁻¹ and the “kd” value stood at 0.00714 s⁻¹. For the same sequence, in assay [2], the equilibrium dissociation constant (Kd) is 0.383 µM, the “ka” value was found to be 134000 M⁻¹ s⁻¹ and the “kd” value is 0.0511 s⁻¹.

For YVIRNSDRHN [No. 43], in assay [1], the Kd was 67.2 nM, the “ka” value was 1.18e+06 M⁻¹ s⁻¹ and the “kd” value was found to be 0.0793 s⁻¹. Moreover, in assay [2], the dissociation constant Kd is 234 µM, the “ka” value is 822 M⁻¹ s⁻¹ and the “kd” value was 0.192 s⁻¹.

With YVVASKSNRL [No. 143], in assay [1], the Kd was 13.5 nM, the “ka” value was determined as 325000 M⁻¹ s⁻¹ and the “kd” value turned out to be 0.0044 s⁻¹.

(Values after patent publication US12535483B2, “Norovirus-binding peptide” (Kao Corporation, priority 2019, dated 2026).)
